Experimental data published in patent US10947227B2, “Tricyclic heterocyclic compounds as sting activators” (Incyte Corporation, priority 2018, dated 2021).

System: IRF3 activation in THP-1 Dual Cells
Assay: IRF3 activation assay in THP-1 Dual Cells (QUANTI-Blue readout)
Assay type: cell-based
Details: Homo sapiens, THP1-Dual, 24 h
Method: THP-1 Dual Cells (Invivogen) were maintained in RPMI1640 medium with addition of 10% FBS, 100 μg/ml zeocin, 10 μg/ml blasticidin. Cells were added in a 96-well flat bottom assay plate at 100,000 per well in 100 μL complete RPMI medium. Test compounds were prepared by serial dilution in complete RPMI medium and 100 μL test compounds were transferred to each corresponding well. The assay plate was incubated at 37° C., 5% CO2 for 24 hours. After the overnight incubation, 20 μL of the culture supernatants were collected, followed by addition of 180 μL of QUANTI-Blue (Invivogen) to assess IRF3 activity. The amount of IRF3 activation was assessed by reading the absorbance at 620-655 nm with a microplate reader 2 hours later. The culture supernatant from the untreated THP-1 cells was used as the negative control. To determine the NF-κB activation, another 20 μL of culture supernatant were transferred to a 96-well white plate, followed by addition of 50 μL of Quanti-Luc™ assay solution (Invivogen). The amount of NF-κB activation induced by the test compounds were determined by the luminescence above the untreated control. EC50 determination was performed by fitting the curve of percent control activity versus the log of the compound concentration using the GraphPad Prism 6.0 software.

| EC50 (Table 1, 24 hours incubation) | EC50 (Table 2, 24 hours incubation) | Compound |
| --- | --- | --- |
| < 200 nM | < 50 nM | CCn1nc(C)cc1C(=O)Nc1nc2cc(C(N)=O)cc(OCCCO)c2n1C/C=C/Cn1c2nc(-c3cc(C)nn3CC)ncc2c2cc(C(N)=O)cc(OC)c21 [Example 16, (E)-9-(4-(5-carbamoyl-2-(1-ethyl-3-methyl-1H-pyrazole-5-carboxamido)-7-(3-hydroxypropoxy)-1H-benzo[d]imidazol-1-yl)but-2-en-1-yl)-2-(1-ethyl-3-methyl-1H-pyrazol-5-yl)-8-methoxy-9H-pyrimido[4,5-b]indole-6-carboxamide] |
| < 200 nM | < 50 nM | CCn1nc(C)cc1C(=O)Nc1nc2cc(C(N)=O)cc(OCCCO)c2n1C/C=C/Cn1c2nc(-c3cc(C)nn3CC)ncc2c2cc(C(N)=O)cc(OCCCN3CCOCC3)c21 [Example 20, (E)-9-(4-(5-carbamoyl-2-(1-ethyl-3-methyl-1H-pyrazole-5-carboxamido)-7-(3-hydroxypropoxy)-1H-benzo[d]imidazol-1-yl)but-2-en-1-yl)-2-(1-ethyl-3-methyl-1H-pyrazol-5-yl)-8-(3-morpholinopropoxy)-9H-pyrimido[4,5-b]indole-6-arboxamide] |
| – | 50 to 200 nM | CCn1nc(C)cc1C(=O)Nc1nc2cc(C(N)=O)cc(OC)c2n1C/C=C/Cn1c2nc(-c3cc(C)nn3CC)ncc2c2cc(C(N)=O)cc(OCCC3CCN(C(=O)OCC(=O)O)CC3)c21 [Example 56, (E)-2-(4-(2-(6-carbamoyl-9-(4-(5-carbamoyl-2-(1-ethyl-3-methyl-1H-pyrazole-5-carboxamido)-7-methoxy-1H-benzo[d]imidazol-1-yl)but-2-enyl)-2-(1-ethyl-3-methyl-1H-pyrazol-5-yl)-9H-pyrimido[4,5-b]indol-8-yloxy)ethyl)piperidine-1-carbonyloxy)acetic Acid] |
| < 1000 nM | 50 to 200 nM | CCn1nc(C)cc1C(=O)Nc1nc2cc(C(N)=O)cc(C)c2n1C/C=C/Cn1c2ccc(C(N)=O)cc2c2ccc(-c3cc(C)nn3CC)nc21 [Example 5, (E)-9-(4-(5-carbamoyl-2-(1-ethyl-3-methyl-1H-pyrazole-5-carboxamido)-7-methyl-1H-benzo[d]imidazol-1-yl)but-2-en-1-yl)-2-(1-ethyl-3-methyl-1H-pyrazol-5-yl)-9H-pyrido[2,3-b]indole-6-carboxamide] |
| – | < 50 nM | CCn1nc(C)cc1C(=O)Nc1nc2cc(C(N)=O)cc(OCCCNS(=O)(=O)CCCC(=O)O)c2n1C/C=C/Cn1c2nc(-c3cc(C)nn3CC)ncc2c2cc(C(N)=O)cc(OCCCOC)c21 [Example 45, (E)-4-(N-(3-((5-carbamoyl-1-(4-(6-carbamoyl-2-(1-ethyl-3-methyl-1H-pyrazol-5-yl)-8-(3-methoxypropoxy)-9H-pyrimido[4,5-b]indol-9-yl)but-2-en-1-yl)-2-(1-ethyl-3-methyl-1H-pyrazole-5-carboxamido)-1H-benzo[d]imidazol-7-yl)oxy)propyl)sulfamoyl)butanoic Acid] |
| – | < 50 nM | CCn1nc(C)cc1C(=O)Nc1nc2cc(C(N)=O)cc(OCCCOC)c2n1C/C=C/Cn1c2nc(-c3cc(C)nn3CC)ncc2c2cc(C(N)=O)cc(OCCCNC(=O)CCCC(=O)O)c21 [Example 50, (E)-5-(3-(6-carbamoyl-9-(4-(5-carbamoyl-2-(1-ethyl-3-methyl-1H-pyrazole-5-carboxamido)-7-(3-methoxypropoxy)-1H-benzo[d]imidazol-1-yl)but-2-enyl)-2-(1-ethyl-3-methyl-1H-pyrazol-5-yl)-9H-pyrimido[4,5-b]indol-8-yloxy)propylamino)-5-oxopentanoic Acid] |
| – | 50 to 200 nM | CCn1nc(C)cc1C(=O)Nc1nc2cc(C(N)=O)cc(OCCN3CCOCC3)c2n1C/C=C/Cn1c2nc(-c3cc(C)nn3CC)ncc2c2cc(C(N)=O)cc(OCCCOC)c21 [Example 38, (E)-9-(4-(5-carbamoyl-2-(1-ethyl-3-methyl-1H-pyrazole-5-carboxamido)-7-(2-morpholinoethoxy)-1H-benzo[d]imidazol-1-yl)but-2-en-1-yl)-2-(1-ethyl-3-methyl-1H-pyrazol-5-yl)-8-(3-methoxypropoxy)-9H-pyrimido[4,5-b]indole-6-carboxamide] |
| < 200 nM | < 50 nM | CCn1nc(C)cc1C(=O)Nc1nc2cc(C(N)=O)cc(OCCCOC(=O)c3cc(C)nn3CC)c2n1C/C=C/Cn1c2ccc(C(N)=O)cc2c2cnc(-c3cc(C)nn3CC)nc21 [Example 17, (E)-3-((5-carbamoyl-1-(4-(6-carbamoyl-2-(1-ethyl-3-methyl-1H-pyrazol-5-yl)-9H-pyrimido[4,5-b]indol-9-yl)but-2-en-1-yl)-2-(1-ethyl-3-methyl-1H-pyrazole-5-carboxamido)-1H-benzo[d]imidazol-7-yl)oxy)propyl 1-ethyl-3-methyl-1H-pyrazole-5-carboxylate] |
| – | < 50 nM | CCn1nc(C)cc1C(=O)Nc1nc2cc(C(N)=O)cc(OCCCO)c2n1C/C=C/Cn1c2ccc(C(N)=O)cc2c2cc(F)c(-c3cc(C)nn3CC)nc21 [Example 32, (E)-9-(4-(5-carbamoyl-2-(1-ethyl-3-methyl-1H-pyrazole-5-carboxamido)-7-(3-hydroxypropoxy)-1H-benzo[d]imidazol-1-yl)but-2-en-1-yl)-2-(1-ethyl-3-methyl-1H-pyrazol-5-yl)-3-fluoro-9H-pyrido[2,3-b]indole-6-carboxamide] |
| < 1000 nM | 500 to 1000 nM | CCn1nc(C)cc1C(=O)Nc1nc2cc(C(N)=O)cc(C)c2n1C/C=C/Cn1c2ccc(C(N)=O)cc2c2cnc(-c3cc(C)nn3CC)c(C#N)c21 [Example 26, (E)-5-(4-(5-carbamoyl-2-(1-ethyl-3-methyl-1H-pyrazole-5-carboxamido)-7-methyl-1H-benzo[d]imidazol-1-yl)but-2-en-1-yl)-4-cyano-3-(1-ethyl-3-methyl-1H-pyrazol-5-yl)-5H-pyrido[4,3-b]indole-8-carboxamide] |
| – | 50 to 200 nM | CCn1nc(C)cc1C(=O)Nc1nc2cc(C(N)=O)cc(OC(C)C)c2n1C/C=C/Cn1c2nc(-c3cc(C)nn3CC)ncc2c2cc(C(N)=O)cc(OCCCOC)c21 [Example 30, (E)-9-(4-(5-carbamoyl-2-(1-ethyl-3-methyl-1H-pyrazole-5-carboxamido)-7-isopropoxy-1H-benzo[d]imidazol-1-yl)but-2-en-1-yl)-2-(1-ethyl-3-methyl-1H-pyrazol-5-yl)-8-(3-methoxypropoxy)-9H-pyrimido[4,5-b]indole-6-carboxamide] |
| – | < 50 nM | CCn1nc(C)cc1C(=O)Nc1nc2cc(C(N)=O)cc(OCCCNC(=O)OCCC(=O)O)c2n1C/C=C/Cn1c2nc(-c3cc(C)nn3CC)ncc2c2cc(C(N)=O)cc(OCCCOC)c21 [Example 39, (E)-3-(((3-((5-carbamoyl-1-(4-(6-carbamoyl-2-(1-ethyl-3-methyl-1H-pyrazol-5-yl)-8-(3-methoxypropoxy)-9H-pyrimido[4,5-b]indol-9-yl)but-2-en-1-yl)-2-(1-ethyl-3-methyl-1H-pyrazole-5-carboxamido)-1H-benzo[d]imidazol-7-yl)oxy)propyl)carbamoyl)oxy)propanoic Acid] |
| – | 50 to 200 nM | CCn1nc(C)cc1C(=O)Nc1nc2cc(C(N)=O)cc(OC)c2n1C/C=C/Cn1c2nc(-c3cc(C)nn3CC)ncc2c2cc(C(N)=O)cc(OCCC3CCN(CCCC(=O)O)CC3)c21 [Example 55, (E)-4-(4-(2-(6-carbamoyl-9-(4-(5-carbamoyl-2-(1-ethyl-3-methyl-1H-pyrazole-5-carboxamido)-7-methoxy-1H-benzo[d]imidazol-1-yl)but-2-enyl)-2-(1-ethyl-3-methyl-1H-pyrazol-5-yl)-9H-pyrimido[4,5-b]indol-8-yloxy)ethyl)piperidin-1-yl)butanoic Acid] |
| – | 50 to 200 nM | CCn1nc(C)cc1C(=O)Nc1nc2cc(C(N)=O)cc(OCCCNC(=O)CCC(=O)O)c2n1C/C=C/Cn1c2nc(-c3cc(C)nn3CC)ncc2c2cc(C(N)=O)cc(OCCCOC)c21 [Example 59, (E)-4-((3-((5-carbamoyl-1-(4-(6-carbamoyl-2-(1-ethyl-3-methyl-1H-pyrazol-5-yl)-8-(3-methoxypropoxy)-9H-pyrimido[4,5-b]indol-9-yl)but-2-en-1-yl)-2-(1-ethyl-3-methyl-1H-pyrazole-5-carboxamido)-1H-benzo[d]imidazol-7-yl)oxy)propyl)amino)-4-oxobutanoic Acid] |
| < 1000 nM | 200 to 500 nM | CCn1nc(C)cc1C(=O)Nc1nc2cc(C(N)=O)cc(C)c2n1C/C=C/Cn1c2ccc(C(N)=O)cc2c2cnc(-c3cc(C(F)(F)F)nn3CC)nc21 [Example 9, (E)-9-(4-(5-carbamoyl-2-(1-ethyl-3-methyl-1H-pyrazole-5-carboxamido)-7-methyl-1H-benzo[d]imidazol-1-yl)but-2-enyl)-2-(1-ethyl-3-(trifluoromethyl)-1H-pyrazol-5-yl)-9H-pyrimido[4,5-b]indole-6-carboxamide] |
| – | 50 to 200 nM | CCn1nc(C)cc1C(=O)Nc1nc2cc(C(N)=O)cc(OCCCN3CCN(C)CC3)c2n1C/C=C/Cn1c2nc(-c3cc(C)nn3CC)ncc2c2cc(C(N)=O)cc(OCCCOC)c21 [Example 31, (E)-9-(4-(5-carbamoyl-2-(1-ethyl-3-methyl-1H-pyrazole-5-carboxamido)-7-(3-(4-methylpiperazin-1-yl)propoxy)-1H-benzo[d]imidazol-1-yl)but-2-en-1-yl)-2-(1-ethyl-3-methyl-1H-pyrazol-5-yl)-8-(3-methoxypropoxy)-9H-pyrimido[4,5-b]indole-6-carboxamide] |
